Measurements reported in patent US20220409727A1, “Metal Complexes Bearing Bisstyryl-Bipyridine Ligand and Their Use as Photosensitizer Agent in One and Two-Photon Photodynamic Therapy” (Paris Sciences et Lettres, priority 2019, published 2022).
Like-named read-outs stand apart in the source and are kept apart here.

Key:
[1] = Singlet oxygen measurement, indirect evaluation (RNO absorbance); type: physicochemical; details: indirect
Procedure, shortened: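 Complex (absorbance 0.2 in air-saturated CH3CN with RNO 24 μM, imidazole 12 mM; or 0.1 in air-saturated PBS with RNO 20 μM, histidine 10 mM) irradiated for varying times. RNO bleaching (A0−A) at 420 nm (CH3CN) or 440 nm (PBS) plotted against time; slope with absorbance correction gives singlet oxygen quantum yield.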

[2] = tested on: human glioblastoma astrocytoma (U373) cells
[3] = tested on: mouse colon carcinoma (CT-26) cells
[4] = Luminescence lifetime measurements; type: physicochemical; details: excitation at 355 nm; for τ/ns air (Lifetime): air saturated CH3CN; for τ/ns degassed (Lifetime): degassed CH3CN
Procedure, shortened: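 Lifetimes were measured in air-saturated and degassed CH3CN solutions (absorbance 0.2 at 355 nm), excited at 355 nm by a pulsed Nd-YAG-pumped OPO. Emission was collected at right angles through a monochromator onto a photomultiplier tube.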

[5] = tested on: non-cancerous retinal pigment epithelium (RPE-1) cells; assay: (Photo-)cytotoxicity on 2D cell monolayers, resazurin assay, RPE-1; details: for PI (480 nm): RPE-1, dark vs 480 nm (10 min, 3.1 J/cm^2); for PI (540 nm): RPE-1, dark vs 540 nm (40 min, 9.5 J/cm^2);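 as to all read-outs here: cells exposed to compound 4 h, medium exchanged, then irradiated or kept dark, 44 h further growth, viability by resorufin fluorescence (ex 540 nm, em 590 nm)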
Method: The human glioblastoma astrocytoma (U373) cell line was cultured in MEM medium supplemented with 10% FBS, 1% NEAA (non-essential amino-acids) and 1% penicillin/streptomycin. […] The human retinal epithelial cells (RPE-1, non-cancerous cells immortalized with hTERT) were cultured in DMEM-F12 medium supplemented with 10% FBS and 1% penicillin/streptomycin. All cell lines were obtained from the American Type Culture Collection (ATCC) and cultured at 37° C. and 5% CO2. Before an experiment, the cells were passaged three times.
The cytotoxicity of the compounds was assessed by measuring cell viability using a fluorometric resazurin assay. The cultivated cells were seeded in triplicates in 96 well plates with a density of 4000 cells per well in 100 μL of media. After 24 h, the medium was removed and the cells were treated with increasing concentrations of the compound diluted in cell media achieving a total volume of 200 μL. The cells were incubated with the compound for 4 h. After this time, the media was removed and replaced with 200 μL of fresh medium. For the phototoxicity studies, the cells were exposed to light with an Atlas Photonics LUMOS BIO irradiator. Each well was constantly illuminated with either a 480 nm or 540 nm irradiation. During this time, the temperature was maintained constantly at 37° C. The cells were grown in the incubator for additional 44 h. For the determination of the dark cytotoxicity, the cells were not irradiated and after the medium exchange directly incubated for 44 h. After this time, the medium was replaced with fresh medium containing resazurin with a final concentration of 0.2 mg/mL. After 4 h incubation, the amount of the fluorescent product resorufin was determined upon excitation at 540 nm and measurement its emission at 590 nm using a SpectraMax M2 Microplate Reader (Molecular Devices).
The obtained data was analyzed with the GraphPad Prism software.

[6] = tested on: human cervical carcinoma (HeLa) cells; assay: (Photo-)cytotoxicity on 2D cell monolayers, resazurin assay, HeLa; type: cell-based; details: for PI (480 nm): dark vs 480 nm (10 min, 3.1 J/cm^2); for PI (540 nm): dark vs 540 nm (40 min, 9.5 J/cm^2)
Text: Before an experiment, the cells were passaged three times.

[7] = tested on: HeLa MCTS; assay: (Photo-)cytotoxicity on 3D multicellular tumor spheroids (ATP, CellTiter-Glo 3D); type: cell-based, human; details: for PI (1-Photon): dark vs 1-Photon irradiation (500 nm, 10 J/cm^2); for PI (2-Photon): dark vs 2-Photon irradiation (800 nm, 10 J/cm^2)
Procedure, shortened: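 HeLa spheroids grown on agarose from 3000 cells/well over 2–3 days, then treated with compound (2% DMSO) for 12 h. Spheroids kept dark or irradiated at 500 nm one-photon or 800 nm two-photon (10 J/cm^2 each), then incubated 48 h more. Viability read as ATP by luminescence.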

[8] = Emission measurement in CH3CN; type: physicochemical; details: room temperature, excitation at 355 nm
[9] = tested on: mouse colon carcinoma (CT-26) cells; assay: (Photo-)cytotoxicity on 2D cell monolayers, resazurin assay, CT-26; details: for PI (480 nm): CT-26, dark vs 480 nm (10 min, 3.1 J/cm^2); for PI (540 nm): CT-26, dark vs 540 nm (40 min, 9.5 J/cm^2); for IC50: compounds 1-3 as chloride salts
[10] = dark, 4 h incubation, compounds 1-3 as chloride salts, read-out: IC50 dark
[11] = read-out: IC50 480 nm (10 min, 3.1 J/cm^2), irradiation 480 nm (10 min, 3.1 J/cm^2), compounds 1-3 as chloride salts
[12] = read-out: IC50 540 nm (40 min, 9.5 J/cm^2), irradiation 540 nm (40 min, 9.5 J/cm^2), compounds 1-3 as chloride salts
[13] = 1-Photon irradiation (500 nm, 10 J/cm^2), read-out: IC50 1-Photon irradiation (500 nm, 10 J/cm^2)
[14] = 2-Photon irradiation (800 nm, 10 J/cm^2, section interval of 5 μm), read-out: IC50 2-Photon irradiation (800 nm, 10 J/cm^2)
[15] = dark, 12 h incubation, read-out: IC50 dark
[16] = read-out: IC50 540 nm (40 min, 9.5 J/cm^2), CT-26, irradiation 540 nm (40 min, 9.5 J/cm^2)
[17] = read-out: IC50 dark, CT-26, dark, 4 h incubation

SMILES: CN(C)c1ccc(/C=C/c2ccnc(-c3cc(/C=C/c4ccc(N(C)C)cc4)ccn3)c2)cc1.CN(C)c1ccc(/C=C/c2ccnc(-c3cc(/C=C/c4ccc(N(C)C)cc4)ccn3)c2)cc1.F[P-](F)(F)(F)(F)F.F[P-](F)(F)(F)(F)F.[Ru+2].c1ccc(-c2ccccn2)nc1 [Compound 4, [Ru(bipy)((E,E′)-4,4′-Bis[p-(N,N-dimethylamino)styryl]-2,2′-bipyridine)2][PF6]2]
- Singlet oxygen quantum yield, indirect 450 nm CH3CN [1]: 40%
- Singlet oxygen quantum yield, indirect 450 nm PBS [1]: 2%
- Singlet oxygen quantum yield, indirect 540 nm CH3CN [1]: 37%
- Singlet oxygen quantum yield, indirect 540 nm PBS [1]: 3%
- IC50 [2]: 19 ± 2.8 µM
- IC50 [3]: 7.3 ± 1.4 µM
- τ/ns air (Lifetime) [4]: 69 ns
- τ/ns degassed (Lifetime) [4]: 417 ns
- PI (480 nm) [5]: >9.2
- PI (540 nm) [5]: >6.8
- PI (480 nm) [6]: >11.8
- PI (540 nm) [6]: >9.4
- IC50 [6, 10]: > 100 µM
- IC50 [6, 11]: 8.5 ± 1.2 µM
- IC50 [6, 12]: 10.6 ± 2.2 µM
- IC50 [7, 13]: 78.3 ± 5.1 µM
- IC50 [7, 14]: 63 ± 4.2 µM
- PI (1-Photon) [7]: >1.3
- PI (2-Photon) [7]: >1.6
- IC50 [7, 15]: > 100 µM
- λem/nm (Emission maximum) [8]: 703 nm
- PI (480 nm) [9]: >13.7
- PI (540 nm) [9]: >10.4
- IC50 [9, 16]: 9.6 ± 1.9 µM
- IC50 [9, 17]: > 100 µM

SMILES: CN(C)c1ccc(/C=C/c2ccnc(-c3cc(/C=C/c4ccc(N(C)C)cc4)ccn3)c2)cc1.F[P-](F)(F)(F)(F)F.F[P-](F)(F)(F)(F)F.[Ru+2].c1ccc(-c2ccnc3c2ccc2c(-c4ccccc4)ccnc23)cc1.c1ccc(-c2ccnc3c2ccc2c(-c4ccccc4)ccnc23)cc1 [Compound 10, [Ru(4,7-Diphenyl-1,10-phenanthroline)2((E,E′)-4,4′-Bis[p-(N,N-dimethylamino)styryl]-2,2′-bipyridine)][PF6]2]
- Singlet oxygen quantum yield, indirect 450 nm CH3CN [1]: 48%
- Singlet oxygen quantum yield, indirect 450 nm PBS [1]: 2%
- Singlet oxygen quantum yield, indirect 540 nm CH3CN [1]: 43%
- Singlet oxygen quantum yield, indirect 540 nm PBS [1]: 2%
- IC50 [2]: 2.1 ± 0.4 µM
- IC50 [3]: 1.3 ± 0.3 µM
- τ/ns air (Lifetime) [4]: 72 ns
- τ/ns degassed (Lifetime) [4]: 339 ns
- PI (480 nm) [5]: 8.7
- PI (540 nm) [5]: 7.4
- PI (480 nm) [6]: 6.7
- PI (540 nm) [6]: 6.3
- IC50 [6, 10]: 10.7 ± 1.4 µM
- IC50 [6, 11]: 1.6 ± 0.3 µM
- IC50 [6, 12]: 1.7 ± 0.4 µM
- IC50 [7, 13]: 8.9 ± 0.7 µM
- IC50 [7, 14]: 3.1 ± 0.6 µM
- PI (1-Photon) [7]: 3.1
- PI (2-Photon) [7]: 9.0
- IC50 [7, 15]: 27.8 ± 3.6 µM
- λem/nm (Emission maximum) [8]: 698 nm
- PI (480 nm) [9]: 4.0
- PI (540 nm) [9]: 4.7
- IC50 [9, 16]: 1.1 ± 0.4 µM
- IC50 [9, 17]: 5.2 ± 0.8 µM

SMILES: CN(C)c1ccc(/C=C/c2ccnc(-c3cc(/C=C/c4ccc(N(C)C)cc4)ccn3)c2)cc1.F[P-](F)(F)(F)(F)F.F[P-](F)(F)(F)(F)F.[Ru+2].c1cnc2c(c1)ccc1cccnc12.c1cnc2c(c1)ccc1cccnc12 [Compound 8, [Ru(phen)2((E,E′)-4,4′-Bis[p-(N,N-dimethylamino)styryl]-2,2′-bipyridine)][PF6]2]
- Singlet oxygen quantum yield, indirect 450 nm CH3CN [1]: 62%
- Singlet oxygen quantum yield, indirect 450 nm PBS [1]: 3%
- Singlet oxygen quantum yield, indirect 540 nm CH3CN [1]: 57%
- Singlet oxygen quantum yield, indirect 540 nm PBS [1]: 2%
- IC50 [2]: 13.3 ± 2.4 µM
- IC50 [3]: 8.2 ± 1.1 µM
- τ/ns air (Lifetime) [4]: 136 ns
- τ/ns degassed (Lifetime) [4]: 334 ns
- PI (480 nm) [5]: >10.9
- PI (540 nm) [5]: >6.4
- PI (480 nm) [6]: >7.9
- PI (540 nm) [6]: >8.8
- IC50 [6, 10]: > 100 µM
- IC50 [6, 11]: 12.6 ± 1.3 µM
- IC50 [6, 12]: 11.4 ± 1.5 µM
- IC50 [7, 13]: 32.6 ± 2.5 µM
- IC50 [7, 14]: 27.8 ± 3.1 µM
- PI (1-Photon) [7]: >9.2
- PI (2-Photon) [7]: >10.8
- IC50 [7, 15]: > 300 µM
- λem/nm (Emission maximum) [8]: 698 nm
- PI (480 nm) [9]: >12.2
- PI (540 nm) [9]: >12.8
- IC50 [9, 16]: 7.8 ± 0.9 µM
- IC50 [9, 17]: > 100 µM

SMILES: COc1ccc(/C=C/c2ccnc(-c3cc(/C=C/c4ccc(OC)cc4)ccn3)c2)cc1.F[P-](F)(F)(F)(F)F.F[P-](F)(F)(F)(F)F.[Ru+2].c1cnc2c(c1)ccc1cccnc12.c1cnc2c(c1)ccc1cccnc12 [Compound 9, [Ru(phen)2((E,E′)-4,4′-Bis[p-methoxystyryl]-2,2′-bipyridine)][PF6]2]
- Singlet oxygen quantum yield, indirect 450 nm CH3CN [1]: 82%
- Singlet oxygen quantum yield, indirect 450 nm PBS [1]: 9%
- Singlet oxygen quantum yield, indirect 540 nm CH3CN [1]: 79%
- Singlet oxygen quantum yield, indirect 540 nm PBS [1]: 8%
- IC50 [2]: 2.1 ± 0.7 µM
- IC50 [3]: 1.1 ± 0.5 µM
- τ/ns air (Lifetime) [4]: 193 ns
- τ/ns degassed (Lifetime) [4]: 669 ns
- PI (480 nm) [5]: >41.7
- PI (540 nm) [5]: >47.6
- PI (480 nm) [6]: >66.7
- PI (540 nm) [6]: >83.3
- IC50 [6, 10]: > 100 µM
- IC50 [6, 11]: 1.5 ± 0.6 µM
- IC50 [6, 12]: 1.2 ± 0.7 µM
- IC50 [7, 13]: 7.5 ± 0.2 µM
- phototoxicity in HeLa MCTS ([7]; 1 Photon and 2 Photons irradiation, compared with compounds 4-6, 8, 10): much higher phototoxicity
- IC50 [7, 14]: 1.2 ± 0.3 µM
- PI (1-Photon) [7]: >40.0
- PI (2-Photon) [7]: >250.0
- IC50 [7, 15]: > 300 µM
- λem/nm (Emission maximum) [8]: 663 nm
- PI (480 nm) [9]: >90.9
- PI (540 nm) [9]: >111.1
- IC50 [9, 16]: 0.9 ± 0.4 µM
- IC50 [9, 17]: > 100 µM

SMILES: COc1ccc(/C=C/c2ccnc(-c3cc(/C=C/c4ccc(OC)cc4)ccn3)c2)cc1.COc1ccc(/C=C/c2ccnc(-c3cc(/C=C/c4ccc(OC)cc4)ccn3)c2)cc1.F[P-](F)(F)(F)(F)F.F[P-](F)(F)(F)(F)F.[Ru+2].c1ccc(-c2ccccn2)nc1 [Compound 5, [Ru(bipy)((E,E′)-4,4′-Bis[p-methoxystyryl]-2,2′-bipyridine)2][PF6]2]
- Singlet oxygen quantum yield, indirect 450 nm CH3CN [1]: 51%
- Singlet oxygen quantum yield, indirect 450 nm PBS [1]: 8%
- Singlet oxygen quantum yield, indirect 540 nm CH3CN [1]: 46%
- Singlet oxygen quantum yield, indirect 540 nm PBS [1]: 6%
- IC50 [2]: 17.8 ± 3.2 µM
- IC50 [3]: 5.1 ± 1.1 µM
- τ/ns air (Lifetime) [4]: 36 ns
- τ/ns degassed (Lifetime) [4]: 231 ns
- PI (480 nm) [5]: >9.8
- PI (540 nm) [5]: >7.9
- PI (480 nm) [6]: >16.7
- PI (540 nm) [6]: >12.7
- IC50 [6, 10]: > 100 µM
- IC50 [6, 11]: 6.4 ± 1.7 µM
- IC50 [6, 12]: 7.9 ± 1.3 µM
- IC50 [7, 13]: 19.3 ± 2.7 µM
- IC50 [7, 14]: 13.4 ± 3.9 µM
- PI (1-Photon) [7]: >5.2
- PI (2-Photon) [7]: >7.5
- IC50 [7, 15]: > 100 µM
- λem/nm (Emission maximum) [8]: 674 nm
- PI (480 nm) [9]: >19.6
- PI (540 nm) [9]: >16.1
- IC50 [9, 16]: 6.2 ± 1 µM
- IC50 [9, 17]: > 100 µM
